Source: patent US20210246886A1, “Fluorosulfones” (3M INNOVATIVE PROPERTIES COMPANY, priority 2018, published 2021)

How the values were obtained:
[1] = Stability as foam additive in polyol/amine catalyst/cyclopentane mixture (fluoride ion release); assay type: physicochemical; conditions: for change of fluoride levels over time (reaction with polyol/amine catalyst mixture): over 48 hours at room temperature; for [F—] at 48 hours / [F—] at time 0: polyol/amine catalyst/foam additive/cyclopentane mixture; for [F—] at 48 hours: aged at room temperature; for [F—] at time 0: room temperature
Experimental: The stability of Example 3 (perfluorodiethylsulfone) was measured in a standard polyol/amine catalyst/foam blowing agent mixture commonly used in making polyurethane foams. The stability was compared to CE9 (PF-5060) and CE10 (FA-188), both of which are available from 3M Company, St. Paul, Minn., US. Stability was determined by measuring the increase in fluoride ion levels over time after mixing all the components at room temperature. An increase in fluoride ion levels is a measure of the extent to which the fluorinated foam additive is reacting with the polyol/amine catalyst mixture to release fluoride ion. Fluoride ion measurements were made using a ThermoScientific ORION DUAL STAR pH/ISE channel meter and VWR 14002-788 F Fluoride specific electrode. The electrode was calibrated using fluoride standards of 1, 2, 10, and 100 ppm fluoride ion concentration in aqueous TISAB II (Total Ionic Strength Adjustment Buffer) buffer solution.
The Polyol/Amine Catalyst/Blowing Agent/Foam Additive sample mixtures were prepared by mixing ELASTAPOR P 17655R Resin (a polyol/amine catalyst blend obtained from BASF, Ludwigshafen, Germany), cyclopentane (a common foam blowing agent), and Example 3, CE9, or CE10 as a foam additive. Using a SARTORIUS A200S balance, the cyclopentane/foam additive mixtures were made first by mixing 25.5 grams of cyclopentane with 2.3 grams of foam additive. Then 43.1 grams of the ELASTAPOR polyol containing the amine catalyst was transferred to a wide mouth 4 oz glass jar and 7 g of the cyclopentane/foam additive mixture was added and shaken.
After the sample mixtures were thoroughly shaken and mixed, an aliquot was removed and an initial fluoride concentration was determined at time 0 hr. Analytical samples were prepared by diluting 1 g of the sample mixture with 1 g of isopropyl alcohol and 0.5 mL of 1N sulfuric acid in a polypropylene centrifuge tube and mixing thoroughly. The sample was further diluted with 1 g of water and mixed again. From this mixture a 1 mL aliquot was taken and mixed with 1 mL of TISAB II solution in a fresh polypropylene centrifuge tube and mixed thoroughly prior to fluoride ion measurement. An average of 3 independent fluoride measurements were used to determine the fluoride concentration of each sample using the fluoride specific electrode and meter described above. Similar measurements were taken every 24 hours. The results are summarized in Table 8 below after 0 and 48 hours.

male Sprague Dawley rats = assay: Inhalation toxicity in rats, single 4-hour whole body exposure; assay type: in vivo, rat
Experimental: The inhalation toxicity potential of Example 3 was evaluated in male Sprague Dawley rats after a single 4-hour whole body exposure at atmospheric concentrations of 10,000 ppm (v/v). The test material (purity 98.84%) was administered as received at an appropriate volume to a 40-L test chamber containing 3 rats. The test material vaporized upon addition to the chamber. The air within the chamber was regenerated at appropriate intervals to maintain an 18% oxygen concentration. Three control animals were placed in another chamber filled with ambient air. The day of exposure was designated Day 0. Clinical observations were recorded during the exposure period and for 14 days after exposure. Body weights were recorded prior to exposure (Day 0), on Day 1, Day 2, and 14 days after exposure for both the test material-treated and control animals.

[2] = Hydrolytic stability: free fluoride in water phase after aging with deionized water; assay type: physicochemical
Experimental: Duplicate samples of Example 3 and CE1 were tested for hydrolytic stability at 150° C. by placing 10 grams of test material along with 10 grams deionized water in a clean, 40 mL Monel pressure vessel, which was sealed and placed in a convection oven set at 150° C. for 24 hours. After aging, the fluoride concentrations were determined by mixing 1 mL of the water phase from each sample with 1 mL of TISAB II (Total Ionic Strength Buffer) buffer solution. Fluoride ion concentrations were then measured using an ORION EA 940 meter with an ORION 9609BNWB Fluoride-Ion Specific Electrode (ISE) (Thermo Fisher Scientific, Minneapolis, Minn., US). ORION IONPLUS Fluoride standards (1, 2, 10 and 100 ppm Fluoride) were used for the calibration of the meter.
The hydrolytic stability values of Example 3 and CE1 are reported as average parts per million by weight (ppmw) of free fluoride in water in Table 4. Higher levels of free fluoride ion concentration correspond to reduced stability.

[3] = Thermal stability: fluoride ion after aging neat in Monel pressure vessel; assay type: physicochemical
Experimental: The thermal stability of Example 3 and CE1 was determined by placing duplicate 10-gram samples in clean, 40 mL Monel pressure vessels and sealing tightly. The pressure vessels were then placed in a convection oven set at 100° C. for 24 hours. After aging, each sample was mixed with a known weight of ultrapure (18.2 MΩ) water, agitated in a mechanical shaker at high speed for 15 minutes and finally centrifuged to separate the two phases. Fluoride ion concentrations were subsequently measured in the water phase as previously described. This was then followed by another experiment at 150° C. using the same method.

SMILES	change of fluoride levels over time (reaction with polyol/amine catalyst mixture) [1]	[F—] at 48 hours [1]	[F—] at time 0 [1]	mortality and clinical observations (male Sprague Dawley rats; 10,000 ppm (v/v), during 4-hour exposure and throughout 14-day study)	body weight, condition and gross necropsy (male Sprague Dawley rats; 10,000 ppm (v/v), single 4-hour exposure, 14-day study)	approximate inhalation 4-hour LC50 (male Sprague Dawley rats; male Sprague Dawley rats, single 4-hour whole body exposure at 10,000 ppm (v/v), 14 days observation)	Average F concentration after 24 hours at 150° C. with DI H2O ([2]; 10 g sample + 10 g deionized water, Monel vessel, 150° C., 24 hours)	Average F concentration at room temperature ([2]; hydrolytic stability test, before aging)	Average F concentration after 24 hours at 100° C. ([3]; neat, no water, Monel vessel)	Average F concentration after 24 hours at 150° C. ([3]; neat, no water, Monel vessel)	Average F concentration at room temperature ([3]; thermal stability test, before aging)
FC(F)(F)C(F)(F)C(F)(F)C(F)(F)C(F)(F)C(F)(F)F [CE9]	essentially unchanged	0.71 ppm	0.83 ppm	–	–	–	–	–	–	–	–
O=S(=O)(C(F)(F)C(F)(F)F)C(F)(F)C(F)(F)F [Example 3, Perfluorodiethylsulfone]	essentially unchanged	10.67 ppm	11.74 ppm	no mortality or abnormal clinical observations	gained weight and were normal	greater than 10,000 ppm	11.55 ppmw	<0.05 ppmw	<0.05 ppmw	0.36 ppmw	<0.05 ppmw
